Columns and labels:
MGM-1 cells [1] = test: ROS measurement by 2,7-DCF fluorescence; assay type: cell-based, human
Description: β-Amyloid Regulation of the Alternative Pathway: MGM-1 cells were plated on 96 well (˜5,000 cells/well, for ROS measurements) or 24 well (˜15,000 cells/well, for D measurements) plates (Corning Costar, Acton, Mass.). At the same time, 1 mg Ab (Ab(1-42), AnaSpec Inc., San Jose, Calif.) was dissolved in 0.5 ml serum-free media and incubated at 4 C. for aggregation. 24 hours later, cells were incubated in DMEM with 10% fetal bovine serum and […] and 10 mM Vitamin E (Sigma, St. Louis, Mo.). Control samples were incubated in DMEM with 10% FBS. Cells were incubated at 37 C. and 6% CO2 for at least 12 hours and processed for ROS generation (see below) or D synthesis as described above for the alternative experiments.
(§1) Treatment media was removed and the cells were washed with PBS. The fluorescent probe 2,7-dichlorofluorescin diacetate (2,7-DCF, Molecular Probes, Inc., Eugene, Oreg.) was used to measure levels of oxidative stress (48). Cells were incubated with […] 2,7-DCF, fluorescence was measured at 485 nm/535 nm using the Victor^2 Multilabel Counter (EG&G Wallac, Gaithersburg, Md.) and values of cellular fluorescence were obtained.

NHA cells [2] = test: ROS measurement by 2,7-DCF fluorescence; assay type: cell-based, human; conditions: all concentrations of FeSO4 tested
Description: as §1

NHA cells [3] = test: Alternative pathway D synthesis; assay type: cell-based, human; conditions: FeSO4, two hours, only seen at the highest dose
Description: (§2) Alternative Pathway: To determine the amount of D synthesized by the alternative pathway cells were treated as previously described (15). In brief, cells were washed and oligodendrocytes and astrocytes were incubated with increasing concentrations of FeSO4 in serum free media, with and without SU 10603 (10 mM); neurons were incubated in serum free media containing 5 mM P plus FeSO4, with and without 10 mM SU 10603. After two hours, cells and media were homogenized and extracted as described above. Extracts were run on C18 TLC plates (Whatman, Clifton, N.J.) with a mobile phase of 95% methanol (v/v); radiolabeled standards for P, progesterone, and D were run on each plate, and appropriate steroid fractions were collected for each sample. TLC fractions were extracted with 2 ml diethyl ether (Fluka, New York) and evaporated. TLC extracts were assayed by specific radioimmunoassay (RIA). In separate experiments, steroids eluted from TLC were further identified by HPLC, RIA and Gas Chromatography-Mass Spectrometry (data not shown).
(§3) RIA using antibodies specific for each steroid (ICN Pharmaceuticals, Costa Mesa, Calif. Mesa) was used to measure P, progesterone and D levels. The data were analyzed using the IBM-PC RIA Data Reduction Program (version 4.1) from Jaffe and Associates (Silver Spring, Md.). Levels of β-amyloid species in AD and control brain samples were analyzed using 4G8 (Senetex PLC, Napa, Calif.), a monoclonal antibody to β-amyloid peptide that recognizes amino acids 17-24. Samples in 0.25 M sucrose buffer were run on 4-20% precast gradient gels (Novex, San Diego, Calif.). Samples were transferred to nitrocellulose membranes and incubated in primary antibody for 1 hour at room temperature at a dilution of 1:2000. Membranes were incubated in secondary antibody (1:1000) for 1-1.5 hours at room temperature and blots were visualized using ECL reagents (Amersham Pharmacia Biotech, Pisquataway, N.J.). Blots were exposed to X-OMAT film.

hNT-PF cells = test: Alternative pathway D synthesis; assay type: cell-based, human
Description: as §2, §3

MGM-3 cells = test: Alternative pathway D synthesis; assay type: cell-based, human; conditions: increasing concentrations of FeSO4, two hours
Description: as §2, §3

MGM-1 cells [4] = test: Alternative pathway D synthesis; assay type: cell-based, human; conditions: increasing concentrations of FeSO4, two hours
Description: as §2, §3

KG-1-C cells = test: Alternative pathway D synthesis; assay type: cell-based, human; conditions: increasing concentrations of FeSO4, two hours
Description: as §2, §3

[5] = tested on: serum from AD and control patients; test: FeSO4 treatment of serum, DHEA by RIA; parameters: species or system human
Description: (§4) Tissue Samples: For brain samples from Alzheimer's patients and control patients, samples were treated as previously described (17). In brief, aliquots of homogenates were incubated with a final concentration of 30 mM (brain) or 10 mM (serum and CSF) FeSO4 at 37° C. for 2 hours. After 2 hours, samples were extracted and purified as described for the endogenous levels, and assayed by specific radioimmunoassay.
Serum and CSF Levels of DHEA: Serum was obtained from 11 patients, 5 with AD and 6 age-matched controls. Serum samples were split and treated with and without 10 mM FeSO4. Serum and CSF samples were extracted as described for the brain tissue samples, and purified by HPLC. DHEA levels were measured by specific radioimmunoassay.

[6] = tested on: brain samples from AD and Control Patients; test: FeSO4 treatment of brain homogenates, P and D by RIA after HPLC; parameters: species or system human
Description: as §4, §3

[7] = tested on: oligodendrocytes or astrocytes; test: D production after addition of P; assay type: cell-based, human; conditions: addition of 5 μM P, data not shown
cell lines used = test: P levels with SU 10603 alone; assay type: cell-based, human; conditions: any of the cell lines used, data not shown
KG-1-C and MGM-3 cells = test: De novo steroid synthesis from 3H-mevalonactone; assay type: cell-based, human; conditions: 5 mM SU 10603, KG-1-C and MGM-3 cells, radiolabeled D
Description: De Novo Steroid Synthesis: All steroid synthesis experiments were performed with the cells at 60-80% confluency. In order to determine the ability of the cells to synthesize steroids de novo, cells were incubated for two hours at 37 C. and 6% CO2, with specific steroidogenic enzyme inhibitors as previously described (50). In brief, endogenous cholesterol synthesis was blocked by incubating cells with 20 mM Mevastatin in serum-free media (Sigma, St. Louis, Mo.) for 1 hour. 10 mM Trilostane and 5 mM SU 10603 were then added. After 30 minutes, […] ^3H-mevalonactone (33 Ci/mmol, DuPont NEN, Boston, Mass.) and 10 mM cold mevalonactone (Sigma, St. Louis, Mo.) were added. Thirty minutes later, media and cells were combined and homogenized on ice for 20 sec. Homogenates were extracted twice with 4 ml of ether:ethyl acetate (1:1, v/v, Fluka, New York, and EM Science, Gibbstown, N.J.) and evaporated. Extracts were reconstituted in 100% methanol and separated on a Beckman System Gold HPLC system, using a 126NM Solvent Module, 166NM Detector and a Beckman ultrasphere XL 3-mm Spherical 80 A pore column (Beckman, Fullerton, Calif.), eluted on a methanol gradient. Fractions were collected each minute and counted by liquid scintillation spectrometry (EG&G Wallac, Gaithersburg, Md.) to determine production of radiolabeled steroids. […]

human brain cells = test: D formation with SU 10603; assay type: cell-based; conditions: all human brain cells examined
Description: as §2

MGM-1 cells [8] = test: β-Amyloid regulation of the alternative pathway, D levels; assay type: cell-based, human
Description: as §2, with “In separate experiments, steroids eluted from TLC were further identified by HPLC, RIA and Gas Chromatography-Mass Spectrometry (data not shown).” left out
RIA using antibodies specific for each steroid (ICN Pharmaceuticals, Costa Mesa, Calif. Mesa) was used to measure P, progesterone and D levels. The data were analyzed using the IBM-PC RIA Data Reduction Program (version 4.1) from Jaffe and Associates (Silver Spring, Md.). Levels of β-amyloid species in AD and control brain samples were analyzed using 4G8 (Senetex PLC, Napa, Calif.), a monoclonal antibody to β-amyloid peptide that recognizes amino acids 17-24. […]

Human glioma cells = test: Vitamin E treatment, ROS and D levels; assay type: cell-based; conditions: 10 mM Vitamin E, at least twelve hours, data not shown
Description: as §2, with “In separate experiments, steroids eluted from TLC were further identified by HPLC, RIA and Gas Chromatography-Mass Spectrometry (data not shown).” left out
Treatment media was removed and the cells were washed with PBS. […] Cells were incubated with […] 2,7-DCF, fluorescence was measured at 485 nm/535 nm using the Victor^2 Multilabel Counter (EG&G Wallac, Gaithersburg, Md.) and values of cellular fluorescence were obtained.
We hypothesized that high endogenous levels of ROS might be responsible for the de novo D formation in KG-1-C and MGM-3 cells. […] We measured ROS and D levels in these cells as described in the Experimental Procedures. […]

[9] = 30 mM FeSO4, frontal cortex, AD patients
[10] = 30 mM FeSO4, frontal cortex, control patients (C)
[11] = 30 mM FeSO4, hippocampus, AD patients
[12] = 30 mM FeSO4, hippocampus, control patients (C)
[13] = 30 mM FeSO4, hypothalamus, AD patients
[14] = 30 mM FeSO4, hypothalamus, control patients (C)

O=S(=O)([O-])[O-].[Fe+2] [FeSO4]
ROS levels above untreated cells (MGM-1 cells [1]; all concentrations of FeSO4 tested, MGM-1): significant increase | ROS levels above untreated cells (NHA cells [2]): significant increase | effect on D formation (NHA cells [3]): significant effect | effect on D levels (hNT-PF cells; increasing concentrations of FeSO4 plus 5 mM P): not affected | effect on D levels (MGM-3 cells): did not significantly affect | D synthesis via the alternative pathway (MGM-1 cells [4]): has the ability to make D via the alternative pathway | effect on D levels (KG-1-C cells): did not significantly affect | effect on D levels ([5]; 10 mM FeSO4, AD serum): little effect | increase in D levels ([5]; 10 mM FeSO4, control serum): 1.5-3 fold | D (pg/mg protein) [6, 9]: 219.3 pg/mg protein | P (pg/mg protein) [6, 9]: 10485.5 pg/mg protein | D (pg/mg protein) [6, 10]: 70.0 pg/mg protein | P (pg/mg protein) [6, 10]: 7339.8 pg/mg protein | D (pg/mg protein) [6, 11]: 241.7 pg/mg protein | P (pg/mg protein) [6, 11]: 11584.0 pg/mg protein | D (pg/mg protein) [6, 12]: 128.3 pg/mg protein | P (pg/mg protein) [6, 12]: 8529.3 pg/mg protein | D (pg/mg protein) [6, 13]: 180.8 pg/mg protein | P (pg/mg protein) [6, 13]: 6640.3 pg/mg protein | D (pg/mg protein) [6, 14]: 61.4 pg/mg protein | P (pg/mg protein) [6, 14]: 7707.2 pg/mg protein

CC(=O)[C@H]1CC[C@H]2[C@@H]3CC=C4C[C@@H](O)CC[C@]4(C)[C@H]3CC[C@]12C [P, pregnenolone]
D production [7]: did not result in increased D production

O=C1c2cc(Cl)ccc2CCC1c1cccnc1 (centres unmarked) [SU 10603]
effect on D levels (hNT-PF cells; SU 10603 treatment): not affected | effect on P levels (cell lines used): no effect | blocking endogenous D production (KG-1-C and MGM-3 cells): not effective | inhibition of D formation (human brain cells): did not inhibit

Aβ: β-amyloid peptide Ab(1-42), AnaSpec Inc., aggregated; a component of Alzheimer's disease plaques
2,7-DCF fluorescence (ROS) versus control levels (MGM-1 cells [1]; 50 mM Aβ, MGM-1, p<0.01): significant increase | D levels versus control (MGM-1 cells [8]; 50 mM Aβ, MGM-1, p<0.01): increased D levels significantly over control

Vitamin E
effect on Aβ-induced increase in ROS (MGM-1 cells [1]; 10 mM Vitamin E with 50 mM Aβ, MGM-1, p=0.054): partially blocked | D levels compared to untreated cells (Human glioma cells): lowered | ROS levels compared to untreated cells (Human glioma cells): lowered | effect on Aβ-induced increase in D levels (MGM-1 cells [8]; 10 mM Vitamin E with 50 mM Aβ, MGM-1, p<0.05 versus Ab): blocked

— US20030213746A1, “Neurosteroids as markers for alzheimer's disease” (priority 2003, published 2003)
